How the values were obtained:
[1] = tested on: HIV-1 LAI; experiment: Antiviral activity in quiescent or PHA-P activated PBMCs infected with HIV-1 LAI; assay type: cell-based; conditions: for decrease of viral replication: PBMCs activated by PHA-P
Protocol: For some experiments, the PBMCs and the PBLs are activated for 48 h with 1 μg/ml of a mitogen, PHA-P (Difco Laboratories). The PBMCs and the PBLs are cultured in medium A (quiescent) or B (activated). The cells are cultured at 37° C. in an atmosphere saturated with moisture under 5% of CO2. The culture supernatants are removed and the culture media are replaced every three or four days. At each renewal of the culture media, the cell viability is evaluated by coloring with trypan blue or by microscopic observation.
The MDMs were infected with the reference isolate with macrophage tropism, HIV-1/Ba-L. The PBMCs and the PBLs were infected with the reference isolate with lymphocyte tropism HIV-1 LAI. The viral stock were formed by amplifying these strains in vitro using umbilical blood mononucleated cells (UBM(s) preactivated with 1 μg/ml of PHA-P and cultured in medium A supplemented by 20 IU/ml of IL-2. In order to remove the soluble factors, such as cytokines, the culture supernatants were ultracentrifuged at 360 000 g for 5 min, and the pellets were resuspended in RPMI 1640. The viral stocks thus formed were subsequently titred using PBMCs activated with PHA-P. The TCID50s (50% Tissue Culture Infectious Dose) were calculated using the Kärber formula.
A million MDMs were infected with 10 000 TCID50s of the HIV-1/Ba-L strain. This amount of virus corresponds to a multiplicity of infection (m.o.i.) equal to 0.01. The excess of virus is removed 24 h after by washing with cells using RPMI 1640. The PBLs and the PBMCs were infected with 10 000 TCID50s of the HIV-1 LAI strain (moi=0.01). The cells were washed at the end of the second day of infection.
(§1) The viral replication is measured by assaying the RT activity in the culture supernatants according to the technique described by F. Rey et al. (Biochem. Biophys. Res. Comm., 1984, 121, 126-133). The radioactivity incorporated during the extension of the complementary strand of a poly-rA synthetic matrix in the presence of an oligo-dT12-18 primer and of a radiolabeled substrate, [^3H-methyl]thymidine-5′-triphosphate ([^3H]TPP), makes it possible to assay the enzymatic activity of RT. 400 μl of supernatant are ultracentrifuged at 360 000 g for 5 min. The RT is released by lysis of the viral pellet in 20 μl of NTE-Triton (100 mM NaCl, 10 mM Tris, 1 mM EDTA, 0.1% Triton X-100). These 20 μl are subsequently incubated with 40 μl of the following reaction mixture: 62.5 mM Tris, pH 7.8; 25 mM KCl; 6.25 mM MgCl2; 1.25 mM dithiothreitol (DTT); 2.5×10^−3 ODU oligo-dT12-18 and poly-rA, 5.55×10^−3 TBq {^3H]TTP. After one hour at 37° C., the enzymatic reaction is halted and the newly synthesized strands are precipitated for 20 min at 4° C. by the addition of 1 ml of sodium pyrophosphate (NaPP), of 50 μl of yeast DNA (0.1 mg/ml in 5% trichluoroacetic acid (TCA)), and of 4 ml of 20% TCA. The mixture is filtered using a cellulose acetate membrane (Millipore) which retains the radiolabeled poly-dT chains. The filter is washed using 20 ml of 5% TCA and the residual water is removed by addition of 25 μl of 70% ethanol. The filter is dried in an oven for 10 minutes at 80° C. and is then introduced into vials containing 8 ml of liquid scintillant. The β radioactivity is quantified by means of a scintillation counter (Packard Bell). The results are expressed in pM of [^3H]-TMP incorporated/h/ml of supernatant or, more simply, in cpm/h/ml.
The PBMCs, quiescent or activated by PHA-P, were infected by the reference strain with lymphocyte tropism HIV-1 LAI. All the culturings were carried out in parallel and the drugs were maintained throughout the culturing.

[2] = molecular target: T1, RT of the HIV-1 LAI isolate (Human immunodeficiency virus type 1 group M subtype B, UniProt P03367); experiment: Acellular test of the enzymatic activity of RT; assay type: biochemical; conditions: acellular system
T1 construct: The RT is released by lysis of the viral pellet in 20 μl of NTE-Triton; endogenous in cells; host or cells: Virions pelleted by ultracentrifugation from supernatants of infected cell cultures
Protocol: as §1
The I-152 molecule is composed of NAC and MEA, which are capable of inhibiting the activity of RT (A. Bergamini et al., J. Clin. Invest., 1994, 93, 2251-2257). For this reason, the inhibiting capacity of I-152 with respect to the RT activity was measured using an acellular test. This test was carried out according to the protocol described above (§ 3.3.3.1.). In the reaction mixture, only the 20 μl of water are replaced by 20 μl of a concentration of I-152 or of the reference compounds. Heparin, known for inhibiting the activity of RT and of the other DNA polymerases, is used as positive control for inhibition.

[3] = tested on: GSH; experiment: Intracellular GSH in MDMs stimulated with LPS and IFN-γ; assay type: cell-based, human; conditions: MDMs stimulated with LPS (1 μg/ml) and IFN-γ (100 IU/ml)
Protocol: The intracellular GSH was assayed by means of the assay kit sold by Cayman. This method for assaying glutathione is an adaptation of that described by O. W. Griffith et al. (1980). Tumor necrosis factor (TNF-α), like the oxygen-comprising or nitrogen-comprising radical components, plays a major role in the apoptotic processes associated with infection the HIV. Furthermore, the radical components can promote the synthesis of this proinflammatory cytokine. For this reason, the effects of I-152 in decreasing the synthesis of TNF-α were thus looked for in MDMs stimulated by a bacterial lipopolysaccharide and interferon (IFN-γ).

[4] = tested on: GSH; experiment: Intracellular GSH in MDMs infected with HIV-1/Ba-L; assay type: cell-based, human; conditions: MDMs with GSH deficiency after infection with HIV-1/Ba-L
Protocol: The intracellular GSH was assayed by means of the assay kit sold by Cayman. This method for assaying glutathione is an adaptation of that described by O. W. Griffith et al. (1980).
The compound I-152 and its derivatives are prepared extemporaneously by being dissolved in dimethyl sulfoxide (DMSO) at the concentration of 100 mM. They are subsequently stored at −20° C. after having been diluted 10 fold in phosphate buffer (PBS).

[5] = tested on: PBMCs

CC(=O)N[C@@H](CS)C(=O)NCCSC(C)=O [I-152, N-(N-acetyl-L-cysteinyl)-S-acetylcysteamine] was tested, and the inhibition at 125 µM ([1]; Human immunodeficiency virus 1, PBMC, quiescent PBMCs, 125 μM, read-out: inhibition of viral replication) was 88%, the inhibition at 250 µM ([1]; Human immunodeficiency virus 1, PBMC, quiescent PBMCs, 250 μM, read-out: inhibition of viral replication) was 97% and the “decrease of viral replication” value ([1]; 125 μM) was 25%. The “decrease of viral replication” value ([1]; 250 μM) was 42%, the “inhibiting activity with respect to RT (in words)” value [2] was “do not exhibit an inhibiting activity” and the “concentration of GSH (in words)” value [3] was “increases the concentration of GSH”. The “regeneration of intracellular GSH level (in words)” value [4] was “capable of regenerating an abnormally low intracellular level” and the “cytotoxicity (in words)” value [5] was “not cytotoxic”.

Source: patent US6979747B2, “Antioxidants, preparation processes and their uses” (Centre National de la Recherche Scientifique (CNRS), priority 1999, dated 2005)
